Experimental data reported in patent US12325696B2, “Indazole derivative, preparation method therefor, and pharmaceutical application thereof” (JIANGSU HENGRUI MEDICINE CO., LTD., priority 2019, dated 2025).

How the values were obtained:
[1] = system: estrogen receptor reporter gene; experiment: Inhibition of estrogen receptor reporter gene activity (ERE-luc luciferase) in MCF7/ERE-luc cells; type: cell-based; settings: Homo sapiens, 0.1 nM β-estradiol, 20 hours, read-out: IC50 of inhibitory activity on the activity of the estrogen receptor reporter gene
How it was run: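 MCF7 cells stably carrying ERE-driven luciferase, in charcoal-stripped serum medium, were stimulated with 0.1 nM β-estradiol plus compound (nine 10-fold dilutions from 10 μM) for 20 h at 37° C. ONE-Glo luminescence was read, and IC50 was fitted from signal versus log concentration.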

[2] = target: estrogen receptor ERα Y537S mutant-type (Homo sapiens (Human), UniProt P03372, Y537S); experiment: Covalent modification of ERα Y537S mutant-type LBD by high-resolution mass spectrometry; type: binding; settings: after 24 hours; 2 μM protein, 10 μM compound, 4° C.
Description: (§1) The ligand binding domain (LBD, aa296-554) of estrogen receptor ERα wild-type and ERα Y537S mutant-type was expressed in E. coli and purified. 2 μM ERα wild-type or ERα Y537S mutant-type protein and 10 μM compound were added to a buffer solution containing 50 mM Tris-HCl, pH7.5, 150 mM NaCl, 1 mM TCEP and 5% glycerol and mixed well. The solution was incubated at 4° C. for 24 hours, followed by high-resolution mass spectrometry (Agilent Technologies, Agilent Q-tof 6530) assay. Alternatively, 1 μM ERα wild-type or ERα Y537S mutant-type protein and 3 μM compound were added to a buffer solution containing 50 mM Tris-HCl, pH7.5, 150 mM NaCl, 1 mM TCEP and 5% glycerol and mixed well. The solution was incubated at 37° C. for 15 minutes, followed by high-resolution mass spectrometry assay. In the mass spectrometry assay results, the peak whose molecular weight is the sum of the molecular weight of the protein and compound is the product of covalent modification. The percentage of covalent modification is obtained by calculating the ratio of […] to total protein.

MCF7 D538G = experiment: Inhibition of proliferation of MCF7 cell expressing ERα D538G mutant; type: cell-based; settings: Homo sapiens, 144 hours; for Emax: read-out: Maximum inhibition
How it was run: (§2)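 MCF7 cells stably expressing lentiviral ERα Y537S or D538G mutants, seeded 3,000 cells/well, then exposed in 2% FBS MEM to nine 4-fold dilutions from 100 nM for 144 h at 37° C. Viability read by CellTiter-Glo luminescence; IC50 fitted from concentration-response.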

MCF7 ERαY537S = experiment: Inhibition of proliferation of MCF7 cell expressing ERα Y537S mutant; type: cell-based; settings: Homo sapiens, 144 hours; for Emax: read-out: Maximum inhibition
How it was run: as §2

[3] = target: estrogen receptor ERα wild-type (Homo sapiens (Human), UniProt P03372); experiment: Covalent modification of ERα wild-type LBD by high-resolution mass spectrometry; type: binding; settings: after 24 hours; 2 μM protein, 10 μM compound, 4° C.
Description: as §1

MCF7 cell = experiment: Inhibition of proliferation of MCF7 cell (CellTiter-Glo, 144 hours); type: cell-based; settings: Homo sapiens; for IC50: MCF7, CellTiter-Glo, read-out: IC50 of the inhibitory effect on the proliferation of MCF7 cell; for Emax: MCF7 cell proliferation, read-out: Maximum inhibition
How it was run: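 Seeded overnight, MCF7 cells were treated in MEM with 2% FBS with nine 4-fold dilutions from 100 nM (0.5% DMSO blank). Incubation 144 h at 37° C, 5% CO2. CellTiter-Glo luminescence read; IC50 from signal versus log concentration.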

Nav1.5 ion channel = Nav1.5 ion channel (Homo sapiens (Human), UniProt Q14524); experiment: Manual patch clamp inhibition of Nav1.5 current in HEK293 cell; type: cell-based; settings: whole-cell patch clamp, read-out: IC50 on inhibiting the Nav1.5 channel activity
Description: The purpose of the experiment is to investigate the effect of the compounds on Nav1.5 ion channel in an […] experiment. Nav1.5 ion channel is stably expressed on HEK293 cell. After the Nav1.5 current becomes stable, the Nav1.5 currents before and after the administration of the compound are compared so as to obtain the effect of the compound on the Nav1.5 ion channel.
Extracellular fluid: NaCl, 137 mM; KCl, 4 mM; CaCl2), 1.8 mM; MgCl2, 1 mM; HEPES, 10; glucose, 10 mM; pH 7.4 (NaOH titration).
Intracellular fluid: aspartic acid, 140 mM; MgCl2, 2 mM; EGTA, 11 mM; HEPES, 10 mM; pH 7.2 (CsOH titration).
The test compound was dissolved in dimethyl sulfoxide (DMSO) at a stock concentration of 9 mM. The stock solution of the test compound was dissolved in the extracellular fluid on the day of the test and formulated into the required concentration.
1) The compound was formulated into solutions with specified concentrations. The solutions were added to the pipelines respectively in order from high to low concentration, and the pipelines were marked.
2) The cell was transferred to the perfusion tank, and perfused with the extracellular fluid. The intracellular fluid was stored in small batches in a −80° C. refrigerator, and melted on the day of the experiment. The electrode was pulled with PC-10 (Narishige, Japan). Recording was carried out with the whole-cell patch clamp, and the noise was filtered at one-fifth of the sampling frequency.
3) All compounds were perfused with a perfusion system that uses its own gravity. Each concentration was tested in at least two cells. After the current stabilized (or after 5 minutes), the blocking effect of the compound was calculated by comparing the changes in the current before and after the administration of the compound.
The cell was clamped at −80 mV. The cell was depolarized to Vhalf with a square wave lasting 8 milliseconds, hyperpolarized to −120 mV with a square wave lasting 20 milliseconds, and depolarized to −10 mV with a square wave lasting 20 milliseconds to obtain the Nav1.5 current. This procedure was repeated every 15 seconds. The maximum current caused by the −10 mV square wave was measured. After the current became stable, the test compound was perfused. After the response became stable, the blocking intensity was calculated.
The data was stored in the computer system for analysis. Data collection and analysis were carried out by pCLAMP 10 (Molecular Devices, Union City, CA). Stable current means that the absolute average value of the peak current of four consecutive scans exceeds 200 pA and the CV value is less than 10%, or the average value of the peak current of four consecutive scans is between 200 pA and 50 pA and the CV value is less than 30%. The average value of the last four current peaks after the current stabilized was used to calculate the effect of the compound at the concentration.

estrogen receptor ERα wild-type, sequence (P03372 296-554): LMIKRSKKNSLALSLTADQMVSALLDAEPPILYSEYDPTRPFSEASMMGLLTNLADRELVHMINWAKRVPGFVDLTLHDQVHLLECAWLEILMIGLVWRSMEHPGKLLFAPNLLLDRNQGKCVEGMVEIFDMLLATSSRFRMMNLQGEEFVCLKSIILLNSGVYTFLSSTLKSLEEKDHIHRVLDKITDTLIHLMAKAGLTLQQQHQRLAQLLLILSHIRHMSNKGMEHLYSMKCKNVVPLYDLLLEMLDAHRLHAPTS
estrogen receptor ERα Y537S mutant-type, sequence (P03372 296-554 Y537S): as the sequence (P03372 296-554) above, with Y242S counted along it
Nav1.5 ion channel, sequence (Q14524 whole entry): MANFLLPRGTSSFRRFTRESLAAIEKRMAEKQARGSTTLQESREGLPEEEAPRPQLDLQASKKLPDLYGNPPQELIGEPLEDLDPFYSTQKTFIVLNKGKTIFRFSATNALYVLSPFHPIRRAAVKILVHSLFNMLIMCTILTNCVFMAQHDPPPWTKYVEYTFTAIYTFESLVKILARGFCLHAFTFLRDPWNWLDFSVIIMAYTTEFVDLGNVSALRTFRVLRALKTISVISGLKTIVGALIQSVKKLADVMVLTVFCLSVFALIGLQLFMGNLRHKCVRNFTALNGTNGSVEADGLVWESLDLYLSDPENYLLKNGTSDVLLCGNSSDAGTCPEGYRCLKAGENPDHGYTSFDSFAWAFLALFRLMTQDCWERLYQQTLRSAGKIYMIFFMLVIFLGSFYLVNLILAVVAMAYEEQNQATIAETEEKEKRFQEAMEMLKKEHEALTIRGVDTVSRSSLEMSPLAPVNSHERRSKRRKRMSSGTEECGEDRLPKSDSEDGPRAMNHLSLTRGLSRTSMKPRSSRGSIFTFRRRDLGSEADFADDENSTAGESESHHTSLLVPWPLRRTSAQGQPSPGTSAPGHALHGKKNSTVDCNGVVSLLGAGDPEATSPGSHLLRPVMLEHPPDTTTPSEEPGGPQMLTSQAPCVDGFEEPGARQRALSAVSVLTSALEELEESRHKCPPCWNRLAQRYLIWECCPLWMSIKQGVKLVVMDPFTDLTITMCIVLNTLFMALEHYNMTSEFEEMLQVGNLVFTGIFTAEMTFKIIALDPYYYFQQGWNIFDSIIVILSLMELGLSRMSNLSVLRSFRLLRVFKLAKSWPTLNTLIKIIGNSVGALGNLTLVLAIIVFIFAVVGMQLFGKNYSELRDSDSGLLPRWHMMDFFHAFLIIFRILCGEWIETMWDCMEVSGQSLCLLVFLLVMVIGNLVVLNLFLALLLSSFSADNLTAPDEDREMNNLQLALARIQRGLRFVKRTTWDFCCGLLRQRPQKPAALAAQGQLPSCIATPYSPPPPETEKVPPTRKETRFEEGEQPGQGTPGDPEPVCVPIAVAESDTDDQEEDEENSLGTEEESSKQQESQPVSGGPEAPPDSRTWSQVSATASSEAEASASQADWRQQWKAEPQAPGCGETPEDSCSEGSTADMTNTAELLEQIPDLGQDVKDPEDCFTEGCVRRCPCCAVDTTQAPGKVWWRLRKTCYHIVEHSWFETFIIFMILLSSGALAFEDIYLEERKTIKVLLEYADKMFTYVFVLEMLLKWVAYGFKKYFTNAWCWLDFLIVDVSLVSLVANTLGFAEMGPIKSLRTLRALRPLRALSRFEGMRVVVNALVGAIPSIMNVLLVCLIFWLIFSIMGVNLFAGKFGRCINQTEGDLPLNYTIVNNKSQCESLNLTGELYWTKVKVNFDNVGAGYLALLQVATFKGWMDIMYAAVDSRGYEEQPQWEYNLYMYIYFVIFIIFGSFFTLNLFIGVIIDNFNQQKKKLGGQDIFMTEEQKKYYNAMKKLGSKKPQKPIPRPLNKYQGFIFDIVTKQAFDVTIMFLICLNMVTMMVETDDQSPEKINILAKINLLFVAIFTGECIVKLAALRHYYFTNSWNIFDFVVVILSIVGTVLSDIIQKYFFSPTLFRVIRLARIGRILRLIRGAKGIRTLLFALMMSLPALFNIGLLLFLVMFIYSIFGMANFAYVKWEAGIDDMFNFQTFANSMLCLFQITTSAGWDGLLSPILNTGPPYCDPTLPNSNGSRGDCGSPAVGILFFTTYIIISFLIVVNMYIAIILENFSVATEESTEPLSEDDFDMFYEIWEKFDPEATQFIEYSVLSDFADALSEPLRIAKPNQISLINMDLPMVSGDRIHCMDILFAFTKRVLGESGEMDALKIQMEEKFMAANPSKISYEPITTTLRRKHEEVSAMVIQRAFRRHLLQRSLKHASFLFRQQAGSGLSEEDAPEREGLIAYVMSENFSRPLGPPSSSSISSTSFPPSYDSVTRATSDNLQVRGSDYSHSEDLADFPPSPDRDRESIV

For `O=C(/C=C/CN1CCC[C@@H](Oc2ccc(/C(=C(/CC(F)(F)F)c3ccccc3)c3ccc4[nH]nc(F)c4c3)cn2)C1)N1CCOCC1` [Example 12, (E)-1-Morpholino-4-((R)-3-((5-((Z)-4,4,4-trifluoro-1-(3-fluoro-1H-indazol-5-yl)-2-phenylbut-1-en-1-yl)pyridin-2-yl)oxy)piperidin-1-yl)but-2-en-1-one], the IC50 [1] was 2 nM, the “Covalent modification effect on the estrogen receptor ERα Y537S mutant-type” value [2] was 83% and the IC50 (MCF7 D538G) was 1 nM. It also gave an Emax (MCF7 D538G) of 96%, an IC50 (MCF7 ERαY537S) of 2 nM and an Emax (MCF7 ERαY537S) of 104%. For the same compound, the “Covalent modification effect on the estrogen receptor ERα wild-type” value [3] was 85%, the IC50 (MCF7 cell) was 0.4 nM and the Emax (MCF7 cell) was 108%.

In the case of `O=C(/C=C/CN1CCC[C@@H](Nc2ccc(/C(=C(/CC(F)(F)F)c3ccccc3)c3ccc4[nH]nc(F)c4c3)cn2)C1)N1CCOCC1` [Example 32, (E)-1-Morpholino-4-((R)-3-((5-((Z)-4,4,4-trifluoro-1-(3-fluoro-1H-indazol-5-yl)-2-phenylbut-1-en-1-yl)pyridin-2-yl)amino)piperidin-1-yl)but-2-en-1-one], the IC50 [1] is reported as 28 nM, the “Covalent modification effect on the estrogen receptor ERα Y537S mutant-type” value [2] is reported as 95% and the IC50 (MCF7 D538G) is reported as 11 nM. The Emax (MCF7 D538G) was 95%, the IC50 (MCF7 ERαY537S) was 19 nM and the Emax (MCF7 ERαY537S) was 84%. For the same compound, the “Covalent modification effect on the estrogen receptor ERα wild-type” value [3] was 94%, the IC50 (MCF7 cell) was 5 nM and the Emax (MCF7 cell) was 100%.

With `O=C(/C=C/CN1CCC[C@@H](Oc2ccc(/C(=C(/CC(F)(F)F)c3ccccc3)c3ccc4[nH]nc(F)c4c3)cn2)C1)N1CCNCC1` [Example 18, (E)-1-(Piperazin-1-yl)-4-((R)-3-((5-((Z)-4,4,4-trifluoro-1-(3-fluoro-1H-indazol-5-yl)-2-phenylbut-1-en-1-yl)pyridin-2-yl)oxy)piperidin-1-yl)but-2-en-1-one] the IC50 [1] was 6 nM, the “Covalent modification effect on the estrogen receptor ERα Y537S mutant-type” value [2] was 99% and the IC50 (MCF7 D538G) was 5 nM. It also gave an Emax (MCF7 D538G) of 104%, an IC50 (MCF7 ERαY537S) of 8 nM and an Emax (MCF7 ERαY537S) of 92%. For the same compound, the “Covalent modification effect on the estrogen receptor ERα wild-type” value [3] was 98%, the IC50 (MCF7 cell) was 1 nM and the Emax (MCF7 cell) was 100%.

In the case of `O=C(/C=C/CNCCOc1ccc(/C(=C(/CC(F)(F)F)c2ccccc2)c2ccc3[nH]nc(F)c3c2)cn1)N1CCOCC1` [Example 43, (E)-1-Morpholino-4-((2-((5-((Z)-4,4,4-trifluoro-1-(3-fluoro-1H-indazol-5-yl)-2-phenylbut-1-en-1-yl)pyridin-2-yl)oxy)ethyl)amino)but-2-en-1-one, reference compound], the IC50 (Nav1.5 ion channel) is reported as 2700 nM.

In the case of `CN(C)C(=O)/C=C/CN1CCC[C@@H](Oc2ccc(/C(=C(/CC(F)(F)F)c3ccc(F)cc3)c3ccc4[nH]nc(F)c4c3)cn2)C1` [Example 19, (E)-N,N-Dimethyl-4-((R)-3-((5-((Z)-4,4,4-trifluoro-1-(3-fluoro-1H-indazol-5-yl)-2-(4-fluorophenyl)but-1-en-1-yl)pyridin-2-yl)oxy)piperidin-1-yl)but-2-enamide], the IC50 [1] is reported as 4 nM, the “Covalent modification effect on the estrogen receptor ERα Y537S mutant-type” value [2] is reported as 97% and the IC50 (MCF7 D538G) is reported as 2 nM. It also gave an Emax (MCF7 D538G) of 97%, an IC50 (MCF7 ERαY537S) of 2 nM and an Emax (MCF7 ERαY537S) of 106%. The “Covalent modification effect on the estrogen receptor ERα wild-type” value [3] was 94%, the IC50 (MCF7 cell) was 0.4 nM and the Emax (MCF7 cell) was 97%.

`CN(C)C(=O)/C=C/CN1CCC[C@@H](Nc2ccc(/C(=C(/CC(F)(F)F)c3ccccc3)c3ccc4[nH]nc(F)c4c3)cn2)C1` [Example 31, (E)-N,N-Dimethyl-4-((R)-3-((5-((Z)-4,4,4-trifluoro-1-(3-fluoro-1H-indazol-5-yl)-2-phenylbut-1-en-1-yl)pyridin-2-yl)amino)piperidin-1-yl)but-2-enamide] was tested, and the IC50 [1] was 6 nM, the “Covalent modification effect on the estrogen receptor ERα Y537S mutant-type” value [2] was 83% and the IC50 (MCF7 D538G) was 2 nM. It also gave an Emax (MCF7 D538G) of 101%, an IC50 (MCF7 ERαY537S) of 3 nM and an Emax (MCF7 ERαY537S) of 105%. The “Covalent modification effect on the estrogen receptor ERα wild-type” value [3] was 80%, the IC50 (MCF7 cell) was 0.7 nM and the Emax (MCF7 cell) was 97%.

With `CN(C)C(=O)/C=C/CN1CCC[C@@H](Oc2ccc(/C(=C(/CC(F)(F)F)c3ccc(S(C)(=O)=O)cc3)c3ccc4[nH]nc(F)c4c3)cn2)C1` [Example 23, (E)-N,N-Dimethyl-4-((R)-3-((5-((Z)-4,4,4-trifluoro-1-(3-fluoro-1H-indazol-5-yl)-2-(4-(methylsulfonyl)phenyl)but-1-en-1-yl)pyridin-2-yl)oxy)piperidin-1-yl)but-2-enamide] the IC50 [1] was 13 nM, the “Covalent modification effect on the estrogen receptor ERα Y537S mutant-type” value [2] was 99% and the IC50 (MCF7 D538G) was 7 nM. It also gave an Emax (MCF7 D538G) of 101%, an IC50 (MCF7 ERαY537S) of 5 nM and an Emax (MCF7 ERαY537S) of 94%. The “Covalent modification effect on the estrogen receptor ERα wild-type” value [3] was 95%, the IC50 (MCF7 cell) was 1 nM and the Emax (MCF7 cell) was 97%.
